According to publication PMC5218480 (PLoS ONE, 2017):

Test system: MV-4-11 cells
Assay: Gene expression microarray analysis (Affymetrix PrimeView) and GSEA
Format: cell-based, human
Design: RFU PODN (11730768_x_at) / Fold change /veh PODN (11730768_x_at) / RFU LINC00158 (11744669_a_at) / Fold change /veh LINC00158 (11744669_a_at) / RFU DUSP10 (11751237_a_at) / Fold change /veh DUSP10 (11751237_a_at) / RFU ID3 (11757404_x_at) / Fold change /veh ID3 (11757404_x_at) / RFU PLEKHG5 (11737974_s_at) / Fold change /veh PLEKHG5 (11737974_s_at) / RFU LRRC4B (11730491_at) / Fold change /veh LRRC4B (11730491_at) / RFU GIMAP4 (11747438_a_at) / Fold change /veh GIMAP4 (11747438_a_at) / RFU KRT8 (11758183_x_at) / Fold change /veh KRT8 (11758183_x_at) / RFU CNN1 (11734310_a_at) / Fold change /veh CNN1 (11734310_a_at) / RFU VPS37D (11726825_at) / Fold change /veh VPS37D (11726825_at) / RFU C10orf10 (11716522_x_at) / Fold change /veh C10orf10 (11716522_x_at) / RFU KIR2DL2 /// KIR2DL4 /// KIR2DL5A /// KIR2DL5B /// KIR2DS1 /// KIR2DS2 /// KIR2DS3 /// KIR2DS4 /// KIR3DL3 /// KIR3DL3 /// KIR3DS1 (11738374_at) / Fold change /veh KIR2DL2 /// KIR2DL4 /// KIR2DL5A /// KIR2DL5B /// KIR2DS1 /// KIR2DS2 /// KIR2DS3 /// KIR2DS4 /// KIR3DL3 /// KIR3DL3 /// KIR3DS1 (11738374_at) / RFU C1QL1 (11718748_at) / Fold change /veh C1QL1 (11718748_at) / RFU TMPRSS4 (11747572_a_at) / Fold change /veh TMPRSS4 (11747572_a_at) / RFU HAMP (11756126_x_at) / Fold change /veh HAMP (11756126_x_at) / RFU RNFT2 (11725882_a_at) / Fold change /veh RNFT2 (11725882_a_at) / RFU NR4A2 (11747474_a_at) / Fold change /veh NR4A2 (11747474_a_at) / RFU ABCC12 (11746883_a_at) / Fold change /veh ABCC12 (11746883_a_at) / RFU TMEM136 (11760407_x_at) / Fold change /veh TMEM136 (11760407_x_at) / RFU CLDN22 /// WWC2 (11732394_at) / Fold change /veh CLDN22 /// WWC2 (11732394_at) / RFU HLA-DPB1 (11760878_x_at) / Fold change /veh HLA-DPB1 (11760878_x_at) / RFU SPINT1 (11716480_a_at) / Fold change /veh SPINT1 (11716480_a_at) / RFU GAP43 (11754022_s_at) / Fold change /veh GAP43 (11754022_s_at) / RFU A4GNT (11735810_at) / Fold change /veh A4GNT (11735810_at) / RFU PRB3 (11715151_x_at) / Fold change /veh PRB3 (11715151_x_at) / RFU TUBB4B (11761932_at) / Fold change /veh TUBB4B (11761932_at) / RFU CAPN14 (11732068_a_at) / Fold change /veh CAPN14 (11732068_a_at) / RFU TMCC2 (11721928_a_at) / Fold change /veh TMCC2 (11721928_a_at) / RFU IRGQ (11745062_a_at) / Fold change /veh IRGQ (11745062_a_at) / RFU FAM174B (11720279_a_at) / Fold change /veh FAM174B (11720279_a_at) / RFU TMPRSS4 (11748680_a_at) / Fold change /veh TMPRSS4 (11748680_a_at) / RFU FAM212B (11763350_a_at) / Fold change /veh FAM212B (11763350_a_at) / RFU PLEKHG5 (11743358_a_at) / Fold change /veh PLEKHG5 (11743358_a_at) / RFU ZSCAN30 (11745921_a_at) / Fold change /veh ZSCAN30 (11745921_a_at) / RFU CMKLR1 (11741424_a_at) / Fold change /veh CMKLR1 (11741424_a_at) / RFU LOC101060620 /// MAPK8IP1 (11723275_at) / Fold change /veh LOC101060620 /// MAPK8IP1 (11723275_at) / RFU SPTSSB (11747773_x_at) / Fold change /veh SPTSSB (11747773_x_at) / RFU PRSS12 (11739890_at) / Fold change /veh PRSS12 (11739890_at) / RFU BIN1 (11741810_x_at) / Fold change /veh BIN1 (11741810_x_at) / RFU WNT11 (11732464_a_at) / Fold change /veh WNT11 (11732464_a_at) / RFU C10orf10 (11716521_a_at) / Fold change /veh C10orf10 (11716521_a_at) / RFU C5orf56 (11738089_at) / Fold change /veh C5orf56 (11738089_at) / RFU CYB561 (11721691_x_at) / Fold change /veh CYB561 (11721691_x_at) / RFU ANKRD19P (11752326_a_at) / Fold change /veh ANKRD19P (11752326_a_at) / RFU OR2T12 /// OR2T33 /// OR2T8 (11738714_s_at) / Fold change /veh OR2T12 /// OR2T33 /// OR2T8 (11738714_s_at) / RFU VCAN (11748164_a_at) / Fold change /veh VCAN (11748164_a_at) / RFU JSRP1 (11732532_at) / Fold change /veh JSRP1 (11732532_at) / RFU KRTAP10-11 (11738290_x_at) / Fold change /veh KRTAP10-11 (11738290_x_at) / RFU MYO3A (11730013_a_at) / Fold change /veh MYO3A (11730013_a_at) / RFU EBF3 (11725865_a_at) / Fold change /veh EBF3 (11725865_a_at) / RFU CAMK2N1 (11719241_x_at) / Fold change /veh CAMK2N1 (11719241_x_at) / RFU C5orf56 (11738088_a_at) / Fold change /veh C5orf56 (11738088_a_at) / RFU OLFML3 (11715873_a_at) / Fold change /veh OLFML3 (11715873_a_at) / RFU LOC100653217 /// NTM (11731650_a_at) / Fold change /veh LOC100653217 /// NTM (11731650_a_at) / RFU MAPK11 (11762145_a_at) / Fold change /veh MAPK11 (11762145_a_at) / RFU FIZ1 (11724087_x_at) / Fold change /veh FIZ1 (11724087_x_at) / RFU OASL (11726364_x_at) / Fold change /veh OASL (11726364_x_at) / RFU SOX15 (11748057_x_at) / Fold change /veh SOX15 (11748057_x_at) / RFU CD79A (11719716_a_at) / Fold change /veh CD79A (11719716_a_at) / RFU HIST1H1D (11736915_at) / Fold change /veh HIST1H1D (11736915_at) / RFU CASKIN2 (11723855_a_at) / Fold change /veh CASKIN2 (11723855_a_at) / RFU LOC730098 (11760151_x_at) / Fold change /veh LOC730098 (11760151_x_at) / RFU OR4N2 (11742367_at) / Fold change /veh OR4N2 (11742367_at) / RFU PRRT2 (11749266_a_at) / Fold change /veh PRRT2 (11749266_a_at) / RFU SNX32 (11753110_a_at) / Fold change /veh SNX32 (11753110_a_at) / RFU CDHR5 (11726645_a_at) / Fold change /veh CDHR5 (11726645_a_at) / RFU RCAN1 (11760418_a_at) / Fold change /veh RCAN1 (11760418_a_at) / RFU FAM167A (11723789_a_at) / Fold change /veh FAM167A (11723789_a_at) / RFU FAM26E (11764081_at) / Fold change /veh FAM26E (11764081_at) / RFU ISYNA1 (11749810_s_at) / Fold change /veh ISYNA1 (11749810_s_at) / RFU ACY1 (11761880_at) / Fold change /veh ACY1 (11761880_at) / RFU 11764098_at / Fold change /veh 11764098_at / RFU SAMD14 (11745864_x_at) / Fold change /veh SAMD14 (11745864_x_at) / RFU NPB (11741838_a_at) / Fold change /veh NPB (11741838_a_at) / RFU TMPRSS6 (11731388_a_at) / Fold change /veh TMPRSS6 (11731388_a_at) / RFU KRTAP10-2 (11738614_at) / Fold change /veh KRTAP10-2 (11738614_at) / RFU ARHGAP8 /// PRR5-ARHGAP8 (11727945_x_at) / Fold change /veh ARHGAP8 /// PRR5-ARHGAP8 (11727945_x_at) / RFU KRTAP5-7 /// NADSYN1 (11734609_at) / Fold change /veh KRTAP5-7 /// NADSYN1 (11734609_at) / RFU RASL12 (11751679_a_at) / Fold change /veh RASL12 (11751679_a_at) / RFU CDKN2B (11736163_a_at) / Fold change /veh CDKN2B (11736163_a_at) / RFU PRF1 (11729649_at) / Fold change /veh PRF1 (11729649_at) / RFU, ZNF638 /// ZNF638-IT1 / Fold change vs veh, ZNF638 /// ZNF638-IT1 / RFU, PANK3 / Fold change vs veh, PANK3 / RFU, SH3YL1 / Fold change vs veh, SH3YL1 / RFU, ZEB2 / Fold change vs veh, ZEB2 / RFU, NRIP1 / Fold change vs veh, NRIP1 / RFU, PTTG1IP / Fold change vs veh, PTTG1IP / RFU, CAPN2 / Fold change vs veh, CAPN2 / RFU, MED14 / Fold change vs veh, MED14 / RFU, SNORA58 / Fold change vs veh, SNORA58 / RFU, C1orf63 / Fold change vs veh, C1orf63 / RFU, LRRFIP1 / Fold change vs veh, LRRFIP1 / RFU, NDUFAF7 / Fold change vs veh, NDUFAF7 / RFU, SLC12A2 / Fold change vs veh, SLC12A2 / RFU, IBTK / Fold change vs veh, IBTK / RFU, ESF1 / Fold change vs veh, ESF1 / Fold change vs veh, TMEM50B / RFU, TAOK1 / Fold change vs veh, TAOK1 / RFU, ACBD3 / Fold change vs veh, ACBD3 / RFU, TMA16 / Fold change vs veh, TMA16 / RFU, RWDD3 / Fold change vs veh, RWDD3 / RFU, BCAT1 / Fold change vs veh, BCAT1 / RFU, EDEM3 / Fold change vs veh, EDEM3 / RFU, TMEM33 / Fold change vs veh, TMEM33 / RFU, WDR75 / Fold change vs veh, WDR75 / RFU, AHCTF1 / Fold change vs veh, AHCTF1 / RFU, TFRC / Fold change vs veh, TFRC / RFU, ZDHHC17 / Fold change vs veh, ZDHHC17 / RFU, NOM1 / Fold change vs veh, NOM1 / RFU, ARL8B / Fold change vs veh, ARL8B / RFU, ZBTB11 / Fold change vs veh, ZBTB11 / RFU, TAMM41 / Fold change vs veh, TAMM41 / RFU, KIAA1704 /// LOC100996395 / Fold change vs veh, KIAA1704 /// LOC100996395 / RFU, ING1 / Fold change vs veh, ING1 / RFU, TRMT61B / Fold change vs veh, TRMT61B / RFU, FUBP3 / Fold change vs veh, FUBP3 / RFU, TP53 / Fold change vs veh, TP53 / RFU, TNKS2 / Fold change vs veh, TNKS2 / RFU, ZFP14 / Fold change vs veh, ZFP14 / RFU, ACTR2 / Fold change vs veh, ACTR2 / RFU, PPP3R1 / Fold change vs veh, PPP3R1 / RFU, PIK3R1 / Fold change vs veh, PIK3R1 / RFU, HNRNPA1 / Fold change vs veh, HNRNPA1 / RFU, RNF170 / Fold change vs veh, RNF170 / RFU, ZNF28 / Fold change vs veh, ZNF28 / RFU, RNGTT / Fold change vs veh, RNGTT / RFU, OGT / Fold change vs veh, OGT / RFU, BRD1 / Fold change vs veh, BRD1 / RFU, MARS / Fold change vs veh, MARS / RFU, ZNF655 / Fold change vs veh, ZNF655 / RFU, FAHD1 / Fold change vs veh, FAHD1 / RFU, BDP1 / Fold change vs veh, BDP1 / RFU, LRRCC1 / Fold change vs veh, LRRCC1 / RFU, ARID1A / Fold change vs veh, ARID1A / RFU, ZNF146 / Fold change vs veh, ZNF146 / RFU, ZNF330 / Fold change vs veh, ZNF330 / RFU, GPN3 / Fold change vs veh, GPN3 / RFU, C9orf123 / Fold change vs veh, C9orf123 / RFU, N4BP2L2 / Fold change vs veh, N4BP2L2 / RFU, ARFIP1 / Fold change vs veh, ARFIP1 / RFU, FAM179B / Fold change vs veh, FAM179B / RFU, BCL10 / Fold change vs veh, BCL10 / RFU, UHRF1BP1L / Fold change vs veh, UHRF1BP1L / RFU, BET1 / Fold change vs veh, BET1 / RFU, CNOT2 / Fold change vs veh, CNOT2 / RFU, ZNF268 / Fold change vs veh, ZNF268 / Fold change vs veh, ZNF507 / RFU, DGCR2 / Fold change vs veh, DGCR2 / RFU, WDSUB1 / Fold change vs veh, WDSUB1 / Fold change vs veh, HSP90B1 /// MIR3652 / RFU, ADSS / Fold change vs veh, ADSS / RFU, GK / Fold change vs veh, GK / RFU, ZNF148 / Fold change vs veh, ZNF148 / RFU, TAF9 / Fold change vs veh, TAF9 / RFU, SLC1A5 / Fold change vs veh, SLC1A5 / RFU, SLMO2 / Fold change vs veh, SLMO2 / RFU, ABCC4 / Fold change vs veh, ABCC4 / RFU, LOC101060439 /// RAP1B / Fold change vs veh, LOC101060439 /// RAP1B / RFU, RFX7 / Fold change vs veh, RFX7 / RFU, GTPBP10 / Fold change vs veh, GTPBP10 / RFU, CNEP1R1 / Fold change vs veh, CNEP1R1 / RFU, BIVM-ERCC5 /// ERCC5 / Fold change vs veh, BIVM-ERCC5 /// ERCC5 / RFU, ILF3 / Fold change vs veh, ILF3 / RFU 11762660_at / Fold change /veh 11762660_at / RFU VCAN (11757783_s_at) / Fold change /veh VCAN (11757783_s_at) / RFU DDX43 (11728927_at) / Fold change /veh DDX43 (11728927_at) / RFU KRT8 (11758188_x_at) / Fold change /veh KRT8 (11758188_x_at) / RFU NKD1 (11759106_at) / Fold change /veh NKD1 (11759106_at) / RFU SRD5A1 (11742802_a_at) / Fold change /veh SRD5A1 (11742802_a_at) / RFU TPSAB1 /// TPSB2 (11721975_s_at) / Fold change /veh TPSAB1 /// TPSB2 (11721975_s_at) / RFU GSTM3 (11746129_a_at) / Fold change /veh GSTM3 (11746129_a_at) / RFU IL23R (11737362_x_at) / Fold change /veh IL23R (11737362_x_at) / RFU TMEM51 (11727254_a_at) / Fold change /veh TMEM51 (11727254_a_at) / RFU PIWIL2 (11732686_x_at) / Fold change /veh PIWIL2 (11732686_x_at) / RFU ORM1 (11744905_x_at) / Fold change /veh ORM1 (11744905_x_at) / RFU CCDC152 (11743942_at) / Fold change /veh CCDC152 (11743942_at) / RFU ECM1 (11717891_a_at) / Fold change /veh ECM1 (11717891_a_at) / RFU IL23R (11748794_a_at) / Fold change /veh IL23R (11748794_a_at) / RFU TNFAIP8L3 (11732012_x_at) / Fold change /veh TNFAIP8L3 (11732012_x_at) / RFU MBOAT4 (11741988_at) / Fold change /veh MBOAT4 (11741988_at) / RFU 11764193_at / Fold change /veh 11764193_at / RFU TMEM53 (11763286_at) / Fold change /veh TMEM53 (11763286_at) / RFU MAGEB2 (11727129_at) / Fold change /veh MAGEB2 (11727129_at) / RFU TMEM200A (11744735_a_at) / Fold change /veh TMEM200A (11744735_a_at) / RFU CCDC152 (11751479_a_at) / Fold change /veh CCDC152 (11751479_a_at) / RFU FAM211A (11726209_a_at) / Fold change /veh FAM211A (11726209_a_at) / RFU RGS16 (11746705_a_at) / Fold change /veh RGS16 (11746705_a_at) / RFU VCAN (11755009_s_at) / Fold change /veh VCAN (11755009_s_at) / RFU RHOB (11743442_s_at) / Fold change /veh RHOB (11743442_s_at) / RFU RGS16 (11720943_a_at) / Fold change /veh RGS16 (11720943_a_at) / RFU RGS16 (11720944_at) / Fold change /veh RGS16 (11720944_at) / RFU, VPS4B / Fold change vs veh, VPS4B / RFU, CREB1 / Fold change vs veh, CREB1 / RFU, DNAJC13 / Fold change vs veh, DNAJC13 / RFU, GNAQ / Fold change vs veh, GNAQ / RFU, CDK5R1 / Fold change vs veh, CDK5R1 / RFU, ZRANB3 / Fold change vs veh, ZRANB3 / RFU, CUL4A / Fold change vs veh, CUL4A / RFU, CCNY / Fold change vs veh, CCNY / RFU, UFL1 / Fold change vs veh, UFL1 / RFU, COG3 / Fold change vs veh, COG3 / RFU, DIAPH2 / Fold change vs veh, DIAPH2 / RFU, SKA2 / Fold change vs veh, SKA2 / RFU, AFF3 / Fold change vs veh, AFF3 / RFU, LMF1 / Fold change vs veh, LMF1 / RFU, IPO11 / Fold change vs veh, IPO11 / RFU, DFFB / Fold change vs veh, DFFB / RFU, FOXP1 / Fold change vs veh, FOXP1 / RFU, CARD8 / Fold change vs veh, CARD8 / RFU, STRN3 / Fold change vs veh, STRN3 / RFU, ADK / Fold change vs veh, ADK / RFU, RASSF2 / Fold change vs veh, RASSF2 / RFU, WIPF1 / Fold change vs veh, WIPF1 / RFU, LARP1B / Fold change vs veh, LARP1B / RFU, RASA1 / Fold change vs veh, RASA1 / RFU, RB1 / Fold change vs veh, RB1 / RFU, PPFIA1 / Fold change vs veh, PPFIA1 / RFU, MAT2A / Fold change vs veh, MAT2A / RFU, CCT5 / Fold change vs veh, CCT5 / RFU, WDR92 / Fold change vs veh, WDR92 / RFU, CUX1 / Fold change vs veh, CUX1 / RFU, TTC7A / Fold change vs veh, TTC7A / RFU, TMEM135 / Fold change vs veh, TMEM135 / RFU, DEPTOR / Fold change vs veh, DEPTOR / RFU, CPM / Fold change vs veh, CPM / RFU, DNAJB6 / Fold change vs veh, DNAJB6 / RFU, CACNA2D3 / Fold change vs veh, CACNA2D3 / RFU, DTX4 / Fold change vs veh, DTX4 / RFU, TFCP2 / Fold change vs veh, TFCP2 / RFU, GMCL1 /// GMCL1P1 / Fold change vs veh, GMCL1 /// GMCL1P1 / RFU, AEBP2 / Fold change vs veh, AEBP2 / RFU, SNHG1 /// SNORD22 /// SNORD25 /// SNORD26 /// SNORD27 /// SNORD28 /// SNORD29 /// SNORD31 / Fold change vs veh, SNHG1 /// SNORD22 /// SNORD25 /// SNORD26 /// SNORD27 /// SNORD28 /// SNORD29 /// SNORD31 / Fold change (Aza/veh), C12orf56 (ProbeSet 11735607_a_at) / Fold change (ACY-1035/veh), C12orf56 (ProbeSet 11735607_a_at) / Fold change (Aza/veh), FGFR1OP (ProbeSet 11751329_s_at) / Fold change (ACY-1035/veh), FGFR1OP (ProbeSet 11751329_s_at) / Fold change (Aza/veh), VPS36 (ProbeSet 11739960_a_at) / Fold change (ACY-1035/veh), VPS36 (ProbeSet 11739960_a_at) / RFU SYPL1 (11715823_x_at) / Fold change /veh SYPL1 (11715823_x_at) / RFU IGFBP7 (11715501_s_at) / Fold change /veh IGFBP7 (11715501_s_at) / RFU REEP3 (11722064_at) / Fold change /veh REEP3 (11722064_at) / RFU IGLL1 (11728026_x_at) / Fold change /veh IGLL1 (11728026_x_at): dose or concentration left out as unconfirmed
Details: ProbeSet 11745428_a_at; LIST D

## Nc1ncn([C@@H]2O[C@H](CO)[C@@H](O)[C@H]2O)c(=O)n1 [azacitidine]
  Fold change vs veh, DFFB: 0.78
